The text below walks through data of patent US6043024A, “Use of one-dimensional nuclear magnetic resonance to identify ligands to target biomolecules” (Abbott Laboratories, priority 1997, dated 2000).

Where two headings read alike, the source gives them in different places.

Experiment [1] deals with T1, FKBP (Homo sapiens, UniProt P62942). The experiment in a line: KD estimated from absence of observed chemical shift changes in 15N-HSQC spectra of FKBP. The class given is binding. The note with it: compounds 2-9; estimated from absence of chemical shift changes in 15N-HSQC spectra at compound concentrations of 1.0 mM. As to the method: (§1) Recombinant human FK binding protein (FKBP) was prepared as described in Logan et al., J. Mol. Biol., 236: 637-648 (1994).
from the absence of observed chemical shift changes in ^15 N--HSQC
spectra of FKBP at compound concentrations of 1.0 mM, as described in the […]

In experiment [2] the target is T1, FKBP. The note with it: cited from earlier work.
The target of experiment [3] is T1, FKBP. Put plainly: Screening for binding using diffusion-filtered one-dimensional proton NMR spectroscopy. The note with it: FKBP 50 μM, gradients 3 and 48 Gauss/cm, diffusion delay 300 ms, pH 6.5, 300K. The method, then: For all experiments, low and high gradient strengths correspond to 3 and 48 Gauss/cm, respectively. The high gradient strength was sufficient to eliminate the residual HDO signal in the sample. A diffusion delay time of 300 ms was used, the concentration of all chemical compounds was 100 μM, the concentration of FKBP was 50 μM, and the buffer was 50 mM PO4, 100 mM NaCl, pH 6.5 (95% D2 O).
For all experiments, low and high gradient strengths correspond to 3 and 48 Gauss/cm. respectively. The high gradient strength was sufficient to eliminate the residual HDO signal in the sample. A diffusion delay time of 300 ms was used, the concentration of all chemical compounds was 100 μM, the concentration of FKBP was 50 μM, and the buffer was […], 100 mM NaCl, pH 6.5 (95% D2 O).
as §1
The pulse sequence employed for exploiting the changes in diffusion rates of potential ligands in the presence of the target molecule that described by S. J. Gibbs and C. S. Johnson, Jr. J. Main. Reson. […]
(§2) All NMR spectra were recorded at 300K on a Bruker AMX500 NMR spectrometer. All spectra were recorded with 256 scans and a proton sweep width of 8333.3 Hz and a proton 90 degree pulse length of 7 μs. […] The NMR data were processed and analyzed on Silicon Graphics computers.

The target in experiment [4] is T1, FKBP. The experiment in a line: Screening for binding using T2-filtered one-dimensional proton NMR spectroscopy. The note with it: FKBP 50 μM, spin-lock 200 ms, pH 6.5, 300K. The method, then: For all experiments, the T2 -filter spin-lock time was 200 ms with a spin-echo delay of 1 ms, the concentration of compound 1 was 100 μM, the concentration of FKBP was 50 μM, and the buffer was 50 mM PO4, 100 mM NaCl, pH 6.5 (95% D2 O).
For all experiments, the T2 -filter spin-lock time was 200 ms with a spin-echo delay of 1 ms, the concentration of all chemical compounds was 100 μM, the concentration of FKBP was 50 μM, and the buffer was 50 mM PO4, 100 mM NaCl, pH 6.5 (95% D2 O).
Recombinant human FK binding protein (FKBP) was prepared as described in Logan et al., J. Mol. Biol., 236: 637-648 (1994). […]
In FIG. 1A, a CPMG sequence with a spin-lock time of 200 ms is applied to the compound in the absence of FKBP. […] These differences can be detected either by direct inspection, or by a spectral differencing method in which the spectrum of […] (after the spin-lock, FIG. 1C) is subtracted from the spectrum of the compound in the presence of FKBP (also after the spin-lock, FIG. 1B), resulting in the spectrum shown in FIG. 1D. […]
as §2

[5] abbreviates: mixture of compounds 1-9, each 100 μM.

T1 sequence (P62942 whole entry): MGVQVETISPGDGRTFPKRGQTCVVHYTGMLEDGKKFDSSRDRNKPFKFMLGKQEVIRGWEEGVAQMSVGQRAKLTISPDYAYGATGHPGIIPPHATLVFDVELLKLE

With `O=C(O)c1ccc(-c2cccs2)s1` [Compound 8], the Kd on FKBP [1] is > 10 mM.

Consider `O=C1CCc2ccccc2O1` [Compound 2], for which, on FKBP [1], the Kd was > 10 mM.

With `Oc1cccc(O)c1` [Compound 5], the Kd on FKBP [1] was > 10 mM.

For `Nc1cc(-c2ccco2)n[nH]1` [Compound 6], at FKBP [1], the Kd was > 10 mM.

With `COc1ccc(-c2ccc(C(=O)O)cc2)cc1` [Compound 7], at FKBP [1], the Kd is > 10 mM.

As to `OC(c1ccccc1)c1ccccc1` [Compound 4], the Kd on FKBP [1] was > 10 mM.

In the case of `c1ccc(-c2ncc[nH]2)cc1` [Compound 1], the Kd was 0.2 mM on FKBP [2] (compound 1, obtained from S. Shuker, et al., Science 274:1531-1534 (1996), read-out: KD) and 0.2 mM at FKBP [2] (read-out: affinity (binds to FKBP)). Besides, at FKBP [3] (setting [5]), the “difference spectrum (FIG. 5E), diffusion-filtered, mixture of compounds 1-9” value was “positive resonances at the chemical shifts for compound 1 in the absence of FKBP”. On FKBP [3] (single compound 100 μM), the “ligand binding detected using diffusion filters (FIGS. 4A-4E)” value was “demonstrated for FKBP binding to compound 1”. The “difference spectrum (FIG. 2E), T2-filtered, mixture of compounds 1-9” value on FKBP [4] (setting [5]) is reported as “positive peaks which correspond to the positions of the reonances of compound 1 in the absence of FKBP”. For the same compound, on FKBP [4] (single compound, T2-filter, compound 100 μM), the “ligand signals after the spin lock time in the presence of FKBP” value is reported as “significantly reduced”.

With `COc1cccc(O)c1` [Compound 3], the Kd on FKBP [1] was > 10 mM.

In the case of `O=c1oc2ccccc2c(O)c1-c1ccccc1` [Compound 9], the Kd on FKBP [1] was > 10 mM.
